According to PMC6151383 (Molecules : A Journal of Synthetic Chemistry and Natural …, 2017):
Converted amounts (≈) assume the structure as drawn.

Each compound was assayed on Trichosporon asahii 1188 (assay: Antifungal microdilution broth MIC, T. asahii). Details: Trichosporon asahii, 1188; 48 h incubation; read-out: MIC TA 48 h.
Format: cell-based
`O=[N+]([O-])c1ccc(O)c(C=Nc2ccc(S(=O)(=O)Nc3ncccn3)cc2)c1` [Compound 2f, 4-[(2-Hydroxy-5-nitrobenzylidene)amino]-N-(pyrimidin-2-yl)benzenesulfonamide] was tested, and the MIC was greater than 500 µM.

What follows are compounds tested on Klebsiella pneumoniae D 11750/08 (assay: not given). Details: 24 h.
For `O=[N+]([O-])c1ccc(O)c(C=Nc2ccc(S(=O)(=O)Nc3ncccn3)cc2)c1` [Compound 2f, 4-[(2-Hydroxy-5-nitrobenzylidene)amino]-N-(pyrimidin-2-yl)benzenesulfonamide], the “MIC KP 24 h” value was greater than 500 µM.

Same assay, conditions: 48 h
`O=[N+]([O-])c1ccc(O)c(C=Nc2ccc(S(=O)(=O)Nc3ncccn3)cc2)c1` [Compound 2f, 4-[(2-Hydroxy-5-nitrobenzylidene)amino]-N-(pyrimidin-2-yl)benzenesulfonamide] was tested, and the “MIC KP 48 h” value was greater than 500 µM.

These compounds were tested on Lichtheimia corymbifera 272 (assay: Antifungal microdilution broth MIC, L. corymbifera). Details: Lichtheimia corymbifera, 272; 48 h incubation; read-out: MIC LC 48 h.
Format: cell-based
`O=[N+]([O-])c1ccc(O)c(C=Nc2ccc(S(=O)(=O)Nc3ncccn3)cc2)c1` [Compound 2f, 4-[(2-Hydroxy-5-nitrobenzylidene)amino]-N-(pyrimidin-2-yl)benzenesulfonamide] showed an MIC of 500 µM (≈ 200 µg/mL).

These compounds were tested on Candida krusei E28 (assay: Antifungal microdilution broth MIC, C. krusei). Details: Pichia kudriavzevii, E28; 48 h incubation; read-out: MIC CK 48 h.
Format: cell-based
With `O=[N+]([O-])c1ccc(O)c(C=Nc2ccc(S(=O)(=O)Nc3ncccn3)cc2)c1` [Compound 2f, 4-[(2-Hydroxy-5-nitrobenzylidene)amino]-N-(pyrimidin-2-yl)benzenesulfonamide] the MIC was greater than 500 µM.

Each compound was assayed on Staphylococcus aureus CCM 4516/08 (assay: Antibacterial microdilution broth MIC, S. aureus). Details: Staphylococcus aureus, CCM4516; 48 h incubation; read-out: MIC SA 48 h.
Format: cell-based
`O=[N+]([O-])c1ccc(O)c(C=Nc2ccc(S(=O)(=O)Nc3ncccn3)cc2)c1` [Compound 2f, 4-[(2-Hydroxy-5-nitrobenzylidene)amino]-N-(pyrimidin-2-yl)benzenesulfonamide] was tested, and the MIC was 250 µM (≈ 99.8 µg/mL).

These compounds were tested on Candida glabrata 20/I (assay: Antifungal microdilution broth MIC, C. glabrata). Details: Nakaseomyces glabratus, 48 h incubation, read-out: MIC CG 48 h.
Format: cell-based
In the case of `O=[N+]([O-])c1ccc(O)c(C=Nc2ccc(S(=O)(=O)Nc3ncccn3)cc2)c1` [Compound 2f, 4-[(2-Hydroxy-5-nitrobenzylidene)amino]-N-(pyrimidin-2-yl)benzenesulfonamide], the MIC is reported as 250 µM (≈ 99.8 µg/mL).

These compounds were tested on Trichophyton interdigitale 445 (assay: Antifungal microdilution broth MIC, T. interdigitale). Details: Trichophyton interdigitale, 445; 72 h incubation; read-out: MIC TI 72 h.
Format: cell-based
Compound `O=[N+]([O-])c1ccc(O)c(C=Nc2ccc(S(=O)(=O)Nc3ncccn3)cc2)c1` [Compound 2f, 4-[(2-Hydroxy-5-nitrobenzylidene)amino]-N-(pyrimidin-2-yl)benzenesulfonamide] has an MIC of 62.5 µM (≈ 25 µg/mL).

Same assay, conditions: Trichophyton interdigitale, 445; 120 h incubation; read-out: MIC TI 120 h
`O=[N+]([O-])c1ccc(O)c(C=Nc2ccc(S(=O)(=O)Nc3ncccn3)cc2)c1` [Compound 2f, 4-[(2-Hydroxy-5-nitrobenzylidene)amino]-N-(pyrimidin-2-yl)benzenesulfonamide] gave an MIC of 62.5 µM (≈ 25 µg/mL).

Same assay, conditions: Trichophyton interdigitale, 445; incubation time not given; read-out: MIC for T. interdigitale
Work on `O=[N+]([O-])c1ccc(O)c(C=Nc2ccc(S(=O)(=O)Nc3ncccn3)cc2)c1` [Compound 2f, 4-[(2-Hydroxy-5-nitrobenzylidene)amino]-N-(pyrimidin-2-yl)benzenesulfonamide] yielded an MIC of 62.5 µM (≈ 25 µg/mL).

These compounds were tested on Mycobacterium avium 330/88 (assay: In vitro antimycobacterial MIC, M. avium). Details: 330/88, 336 h, 14 d incubation, read-out: MIC M. avium 330/88 14 d.
Format: cell-based
With `O=[N+]([O-])c1ccc(O)c(C=Nc2ccc(S(=O)(=O)Nc3ncccn3)cc2)c1` [Compound 2f, 4-[(2-Hydroxy-5-nitrobenzylidene)amino]-N-(pyrimidin-2-yl)benzenesulfonamide] the MIC was 500 µM (≈ 200 µg/mL).

Same assay, conditions: 330/88, 504 h, 21 d incubation, read-out: MIC M. avium 330/88 21 d
`O=[N+]([O-])c1ccc(O)c(C=Nc2ccc(S(=O)(=O)Nc3ncccn3)cc2)c1` [Compound 2f, 4-[(2-Hydroxy-5-nitrobenzylidene)amino]-N-(pyrimidin-2-yl)benzenesulfonamide] was tested, and the MIC was 1000 µM (≈ 399 µg/mL).

The compounds below were run on M. kansasii 6509/96 (assay: In vitro antimycobacterial MIC, M. kansasii clinical isolate). Details: Mycobacterium kansasii, 6509/96, 168 h; 7 d incubation; read-out: MIC M. kansasii 6509/96 7 d.
Format: cell-based
For `O=[N+]([O-])c1ccc(O)c(C=Nc2ccc(S(=O)(=O)Nc3ncccn3)cc2)c1` [Compound 2f, 4-[(2-Hydroxy-5-nitrobenzylidene)amino]-N-(pyrimidin-2-yl)benzenesulfonamide], the MIC was 125 µM (≈ 49.9 µg/mL).

Same assay, conditions: Mycobacterium kansasii, 6509/96, 336 h; 14 d incubation; read-out: MIC M. kansasii 6509/96 14 d
`O=[N+]([O-])c1ccc(O)c(C=Nc2ccc(S(=O)(=O)Nc3ncccn3)cc2)c1` [Compound 2f, 4-[(2-Hydroxy-5-nitrobenzylidene)amino]-N-(pyrimidin-2-yl)benzenesulfonamide] was tested, and the MIC was 250 µM (≈ 99.8 µg/mL).

Same assay, conditions: Mycobacterium kansasii, 6509/96, 504 h; 21 d incubation; read-out: MIC M. kansasii 6509/96 21 d
In the case of `O=[N+]([O-])c1ccc(O)c(C=Nc2ccc(S(=O)(=O)Nc3ncccn3)cc2)c1` [Compound 2f, 4-[(2-Hydroxy-5-nitrobenzylidene)amino]-N-(pyrimidin-2-yl)benzenesulfonamide], the MIC is reported as 250 µM (≈ 99.8 µg/mL).

These compounds were tested on ESBL-positive Klebsiella pneumoniae J 14368/08 (assay: not given). Details: 24 h.
With `O=[N+]([O-])c1ccc(O)c(C=Nc2ccc(S(=O)(=O)Nc3ncccn3)cc2)c1` [Compound 2f, 4-[(2-Hydroxy-5-nitrobenzylidene)amino]-N-(pyrimidin-2-yl)benzenesulfonamide] the “MIC KP-E 24 h” value was 500 µM (≈ 200 µg/mL).

Same assay, conditions: 48 h
`O=[N+]([O-])c1ccc(O)c(C=Nc2ccc(S(=O)(=O)Nc3ncccn3)cc2)c1` [Compound 2f, 4-[(2-Hydroxy-5-nitrobenzylidene)amino]-N-(pyrimidin-2-yl)benzenesulfonamide] was tested, and the “MIC KP-E 48 h” value was 500 µM (≈ 200 µg/mL).

Each compound was assayed on Mycobacterium tuberculosis 331/88 (H37Rv) (assay: In vitro antimycobacterial MIC, M. tuberculosis). Details: 336 h, 14 d incubation, read-out: MIC Mtb. 331/88 14 d.
Format: cell-based
`O=[N+]([O-])c1ccc(O)c(C=Nc2ccc(S(=O)(=O)Nc3ncccn3)cc2)c1` [Compound 2f, 4-[(2-Hydroxy-5-nitrobenzylidene)amino]-N-(pyrimidin-2-yl)benzenesulfonamide] was tested, and the MIC was 250 µM (≈ 99.8 µg/mL).

Same assay, conditions: 504 h, 21 d incubation, read-out: MIC Mtb. 331/88 21 d
For `O=[N+]([O-])c1ccc(O)c(C=Nc2ccc(S(=O)(=O)Nc3ncccn3)cc2)c1` [Compound 2f, 4-[(2-Hydroxy-5-nitrobenzylidene)amino]-N-(pyrimidin-2-yl)benzenesulfonamide], the MIC was 250 µM (≈ 99.8 µg/mL).

What follows are compounds tested on Candida albicans ATCC 44859 (assay: Antifungal microdilution broth MIC, C. albicans). Details: ATCC44859, 48 h incubation, read-out: MIC CA 48 h.
Format: cell-based
Compound `O=[N+]([O-])c1ccc(O)c(C=Nc2ccc(S(=O)(=O)Nc3ncccn3)cc2)c1` [Compound 2f, 4-[(2-Hydroxy-5-nitrobenzylidene)amino]-N-(pyrimidin-2-yl)benzenesulfonamide] has an MIC of 500 µM (≈ 200 µg/mL).

The compounds below were run on Aspergillus fumigatus 231 (assay: Antifungal microdilution broth MIC, A. fumigatus). Details: Aspergillus fumigatus, 231; 48 h incubation; read-out: MIC AF 48 h.
Format: cell-based
Compound `O=[N+]([O-])c1ccc(O)c(C=Nc2ccc(S(=O)(=O)Nc3ncccn3)cc2)c1` [Compound 2f, 4-[(2-Hydroxy-5-nitrobenzylidene)amino]-N-(pyrimidin-2-yl)benzenesulfonamide] has an MIC greater than 500 µM.

These compounds were tested on Staphylococcus epidermidis H 6966/08 (assay: Antibacterial microdilution broth MIC, S. epidermidis). Details: Staphylococcus epidermidis, H6966/08; 48 h incubation; read-out: MIC SE 48 h.
Format: cell-based
`O=[N+]([O-])c1ccc(O)c(C=Nc2ccc(S(=O)(=O)Nc3ncccn3)cc2)c1` [Compound 2f, 4-[(2-Hydroxy-5-nitrobenzylidene)amino]-N-(pyrimidin-2-yl)benzenesulfonamide] gave an MIC of 500 µM (≈ 200 µg/mL).

Each compound was assayed on Pseudomonas aeruginosa CCM 1961 (assay: Antibacterial microdilution broth MIC, P. aeruginosa). Details: Pseudomonas aeruginosa, CCM1961; 48 h incubation; read-out: MIC PA 48 h.
Format: cell-based
Work on `O=[N+]([O-])c1ccc(O)c(C=Nc2ccc(S(=O)(=O)Nc3ncccn3)cc2)c1` [Compound 2f, 4-[(2-Hydroxy-5-nitrobenzylidene)amino]-N-(pyrimidin-2-yl)benzenesulfonamide] yielded an MIC of 500 µM (≈ 200 µg/mL).

The compounds below were run on Mycobacterium kansasii 235/80 (assay: In vitro antimycobacterial MIC, M. kansasii 235/80). Details: 235/80, 168 h, 7 d incubation, read-out: MIC M. kansasii 235/80 7 d.
Format: cell-based
In the case of `O=[N+]([O-])c1ccc(O)c(C=Nc2ccc(S(=O)(=O)Nc3ncccn3)cc2)c1` [Compound 2f, 4-[(2-Hydroxy-5-nitrobenzylidene)amino]-N-(pyrimidin-2-yl)benzenesulfonamide], the MIC is reported as 125 µM (≈ 49.9 µg/mL).

Same assay, conditions: 235/80, 336 h, 14 d incubation, read-out: MIC M. kansasii 235/80 14 d
`O=[N+]([O-])c1ccc(O)c(C=Nc2ccc(S(=O)(=O)Nc3ncccn3)cc2)c1` [Compound 2f, 4-[(2-Hydroxy-5-nitrobenzylidene)amino]-N-(pyrimidin-2-yl)benzenesulfonamide] showed an MIC of 250 µM (≈ 99.8 µg/mL).

Same assay, conditions: 235/80, 504 h, 21 d incubation, read-out: MIC M. kansasii 235/80 21 d
In the case of `O=[N+]([O-])c1ccc(O)c(C=Nc2ccc(S(=O)(=O)Nc3ncccn3)cc2)c1` [Compound 2f, 4-[(2-Hydroxy-5-nitrobenzylidene)amino]-N-(pyrimidin-2-yl)benzenesulfonamide], the MIC is reported as 500 µM (≈ 200 µg/mL).

What follows are compounds tested on Candida tropicalis 156 (assay: Antifungal microdilution broth MIC, C. tropicalis). Details: Candida tropicalis, 156; 48 h incubation; read-out: MIC CT 48 h.
Format: cell-based
`O=[N+]([O-])c1ccc(O)c(C=Nc2ccc(S(=O)(=O)Nc3ncccn3)cc2)c1` [Compound 2f, 4-[(2-Hydroxy-5-nitrobenzylidene)amino]-N-(pyrimidin-2-yl)benzenesulfonamide] showed an MIC greater than 500 µM.

The compounds below were run on Escherichia coli CCM 4517 (assay: Antibacterial microdilution broth MIC, E. coli). Details: Escherichia coli, CCM4517; 48 h incubation; read-out: MIC EC 48 h.
Format: cell-based
`O=[N+]([O-])c1ccc(O)c(C=Nc2ccc(S(=O)(=O)Nc3ncccn3)cc2)c1` [Compound 2f, 4-[(2-Hydroxy-5-nitrobenzylidene)amino]-N-(pyrimidin-2-yl)benzenesulfonamide] showed an MIC of 250 µM (≈ 99.8 µg/mL).

Each compound was assayed on Enterococcus faecalis J 14365/08 (assay: Antibacterial microdilution broth MIC, E. faecalis). Details: Enterococcus faecalis, J14365/08; 48 h incubation; read-out: MIC EF 48 h.
Format: cell-based
In the case of `O=[N+]([O-])c1ccc(O)c(C=Nc2ccc(S(=O)(=O)Nc3ncccn3)cc2)c1` [Compound 2f, 4-[(2-Hydroxy-5-nitrobenzylidene)amino]-N-(pyrimidin-2-yl)benzenesulfonamide], the MIC is reported as 500 µM (≈ 200 µg/mL).
